One experiment addresses T1, hTGase 2 (Homo sapiens, UniProt P21980).
T1 construct: purchased Zedira (Darmstadt, Germany) T022, lot 0716a
T1 sequence (P21980 1-687): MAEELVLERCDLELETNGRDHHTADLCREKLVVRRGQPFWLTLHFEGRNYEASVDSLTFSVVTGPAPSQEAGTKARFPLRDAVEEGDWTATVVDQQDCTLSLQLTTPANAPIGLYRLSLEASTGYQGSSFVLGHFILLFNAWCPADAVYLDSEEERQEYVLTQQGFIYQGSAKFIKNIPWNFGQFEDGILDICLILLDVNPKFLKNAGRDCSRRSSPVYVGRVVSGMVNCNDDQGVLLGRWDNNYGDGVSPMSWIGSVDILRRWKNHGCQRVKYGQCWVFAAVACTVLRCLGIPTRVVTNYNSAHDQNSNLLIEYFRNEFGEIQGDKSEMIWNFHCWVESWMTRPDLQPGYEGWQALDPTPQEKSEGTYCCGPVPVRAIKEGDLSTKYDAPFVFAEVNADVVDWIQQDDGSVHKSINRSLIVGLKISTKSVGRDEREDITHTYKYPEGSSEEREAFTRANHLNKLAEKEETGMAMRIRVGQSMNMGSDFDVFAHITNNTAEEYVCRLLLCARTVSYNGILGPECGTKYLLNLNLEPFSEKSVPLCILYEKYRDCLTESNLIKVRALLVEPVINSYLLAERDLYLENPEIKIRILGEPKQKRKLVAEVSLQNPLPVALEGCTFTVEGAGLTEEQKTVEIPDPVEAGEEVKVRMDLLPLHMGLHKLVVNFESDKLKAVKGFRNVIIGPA
Kind of experiment: switchSENSE static mode (fluorescence proximity sensing): binding kinetics of GTPγS to hTGase 2-dsDNA lever. The note with it: for koff / kon: 20 nM GTPγS, best-fit ± standard error; for Kd: quotient koff/kon. The method, then:
The switchSENSE® experiments were performed with a DRX^2 (Dynamic Biosensors, excitation 600–630 nm, emission 650–686 nm). All experiments were performed in TE40 (10 mM TRIS pH 7.4, 40 mM NaCl, 50 µM EDTA, 50 µM EGTA, 100 µM TCEP, 0.05% Tween 20) when not explicitly stated otherwise. For the dynamic mode measurements, the standard operation procedures as described in [56] were applied. For measurements of the kinetics of the interaction of both GTPγS and CaCl2 with hTGase 2, firstly, the ssDNA-hTGase 2 conjugate was hybridized for 360 s to the ssDNA capture strand on the gold microelectrodes of the chip. With 500 nM, the conjugate concentration was chosen relatively high to achieve full coverage of the electrodes. Secondly, 1000 µL of 20 nM GTPγS in TE40 were flushed over the electrodes, followed by about 4000 µL of TE40 (2000 µL/min), to obtain access to the association as well as the dissociation, respectively. Changes in the fluorescence intensity during the GTPγS interaction were recorded using fluorescence proximity sensing (static mode).
The formation of the protein–ligand complex of GTPγS and hTGase 2 can be represented by the reaction equation expressed by Equation (1). (1) P+L kon⇌koff PL
The concentration of the protein–ligand complex, [PL] , at a certain time of association ta is [PL]a . At the beginning of the association, there is no surface-bound complex present, i.e., [PL]=0 , and the ligand concentration is assumed to be constant at [L]=cGTPγS . This neglects diffusion limitation by assuming continuous replacement of the medium at the electrode surface in the microfluidic channel. Thus, the time-dependent equilibrium fraction reached at the association time ta can be expressed by Equation (2). For derivation, see Equations (S1) to (S5) in Supplementary Materials. (2) [PL]a/[PL]∞=1−e^−ka·ta
In Equation (2), [PL]∞ is the equilibrium concentration of the protein–ligand complex, and ka is the apparent rate constant in the association experiment, defined by Equation (3). (3) ka=cGTPγS kon+koff
During the dissociation, the concentration of the free ligand is assumed to be constantly zero. Consequently, Equation (6) should be valid (for derivation, see Equations (S7) to (S10) in Supplementary Materials). (6) [PL]d/[PL]d,0=e^−koff·td
Combining Equations (6) and (7), the time-dependent fluorescence intensity during the dissociation is given by Equation (8). (8) Fd=(Fd,s−Fd,e)(e^−koff·td)+Fd,e
Equations (5) and (8) were fitted to the measured fluorescence intensities of the association and dissociation experiments with 20 nM GTPγS, respectively. This was performed by a damped Gauss–Newton algorithm (see Equations (S12) and (S13) in Supplementary Materials) to determine the best-fit parameters, and consequently, kon and koff. The quotient koff/kon is the dissociation constant, Kd. Additionally, the standard errors of these parameters were estimated (Equations (S14) to (S21) in Supplementary Materials).

The target of a further experiment is T2, commercial His6-hTGase 2 (Homo sapiens, UniProt P21980).
T2 construct: purchased Zedira (Darmstadt, Germany) T022, lot 0716a
T2 sequence (P21980 1-687): T1 sequence (P21980 1-687)
Kind of experiment: fluorescence anisotropy (FA)-based transamidase activity assay, commercial His6-hTGase 2. Type of experiment: biochemical. The protocol:
For the analysis of inhibitor 1 on self-produced hTGase 2, 2 µg/mL of the enzyme was used to guarantee comparability with the value reported by Wodtke et al., whereas all other experiments were performed with 5 µg/mL of either commercial or self-produced hTGase 2 (corresponding to 64.1 and 61.6 nM, respectively, when assuming 100% active protein). Parallel and perpendicular fluorescence intensities were measured over 1190 s in 35 s intervals (1) or over 1776 s in 48 s intervals (2, 3) and used to calculate the FA. Data of FA for the first 875 s (1) or 384 s (2, 3) were analyzed by linear regression, with slopes corresponding to enzymatic rates. Rates in the presence of inhibitor were normalized by dividing them by the respective rate in the absence of inhibitor, and normalized rates were analyzed according to Equation (S29) in Supplementary Materials to calculate values of IC50. Data analysis was performed with Microsoft Excel (Microsoft Office Professional Plus 2016, Microsoft® Corporation, USA) and GraphPad Prism version 5.03 or version 6.07 for Windows (GraphPad Software, La Jolla, CA, USA).
In general terms: Fluorescence polarisation rises when a labelled molecule tumbles more slowly, as on binding a larger partner.

Setting [1] is: His-tag-directed labeling of hTGase 2.
The mark [2] stands for this setting: non-directed labeling of hTGase 2.

The structures appear in SMILES notation.

For orientation: Kd means a measure of binding affinity in units of concentration. Read a high Kd as lower affinity. Broadly, the IC50 is the point on the concentration scale where inhibition reaches its midpoint.

In the case of `Nc1nc2c(ncn2[C@@H]2O[C@H](COP(=O)(O)OP(=O)(O)OP(O)(O)=S)[C@@H](O)[C@H]2O)c(=O)[nH]1` [GTPγS], on hTGase 2 (setting [1]), the koff was 1.9 ± 0.5 10^−2 s^−1, the kon was 16 ± 2 10^6 M^−1 s^−1 and binding was put at a Kd of 1.2 ± 0.4 nM. For the same compound, on hTGase 2 (setting [2]), the koff is listed as 1.6 ± 0.6 10^−2 s^−1, the kon is 17 ± 4 10^6 M^−1 s^−1 and the Kd was determined as 1 ± 0.4 nM.

On to `C=CC(=O)NCCCC[C@H](NC(=O)Cc1ccccc1I)C(=O)N1CCN(c2ccc([N+](=O)[O-])nc2)CC1` [Compound 2, N^α-(2-Iodophenylacetyl)-N^ε-acryloyl-L-lysin-4-(2-nitropyridin-5-yl)piperazide], for which the IC50 is 154 nM against commercial His6-hTGase 2 (5 min pre-incubation of enzyme and inhibitor, mean (SEM) of three experiments); 47.4 nM against commercial His6-hTGase 2 (30 min pre-incubation, hTGase 2 (Zedira) 64.1 nM, mean (SEM)); 35 to 47 nM against commercial His6-hTGase 2 (FA assay, 30 min pre-incubation, range over in-house and commercial hTGase 2 (62–64 nM)). Further, the “ratio of the IC50 and the molar enzyme concentration” value at commercial His6-hTGase 2 (FA assay, 30 min pre-incubation, range over in-house and commercial hTGase 2) was 0.57–0.74.
